Assay results as given in patent publication US7745450B2, “Pyrazolo[4,3-d]pyrimidines, processes for their preparation and methods for therapy” (Institute of Experimental Botany, priority 2002, dated 2010).
Where two headings read alike, the source gives them in different places.

Assays:
cdk1/cyclin B (CDC2) = cdk1/cyclin B (CDC2) (Homo sapiens, UniProt P06493); experiment: CDK inhibition assay, cdk1/cyclin B (CDC2) kinase, histone phosphorylation; type: biochemical; conditions: cell free system (Table 8)
In short: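 Human cdk1/cyclin B activity measured with 1 mg/ml histone substrate, 15 μM ATP plus [γ-32P]ATP, in HEPES pH 7.4 buffer with 10 mM MgCl2. Phosphorylation quantified by phosphorimaging; activity expressed as % of maximum, IC50 from dose-response curves by graphic analysis.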

[1] = tested on: PHA-stimulated lymphocytes (PBMC); experiment: Proliferation of PHA-stimulated lymphocytes (PBMC), flow cytometric cell count; type: cell-based, human; conditions: 96 hours, IL-2
Method: Peripheral blood mononuclear cells (PBMC): Human peripheral blood mononuclear cells were isolated by density gradient (Ficoll-Hypaque) (LSM, ICN Biomedicals Inc.). PBMC were stimulated with 5 μg/ml phytohemaglutinin A (PHA) (Sigma) during 24-48 hours in IMDM supplemented with 10% FCS at 37° C. After washing off the PHA, PBMC were incubated with interleukin-2 (IL-2) (10 U/ml) (Genzyme).
Cells were plated at 10000 per well in 200 μl IMDM medium and incubated with 0-50 μM of the novel compounds (Tab 8), by addition of drug directly to the culture medium and incubated at 37° C. for 96 hours (Tab 8). Absolute cell number was determined by addition of a known concentration Fluoresbrite microspheres (FITC) (Polysciences, Inc.). The absolute number of cells/well was calculated as: {(total number of beads added/well)/(number of beads measured)×(number of measured cells in the gate of interest)}. All analyses were performed with a FACScan (BD), using CELLQuest software (Becton Dickinson).
PHA-stimulated lymphocytes (PBMC) were tested for their cytotoxicity as one of the normal counterparts of the cell lines. Cells were grown for 96 hours in the presence of IL-2 and different concentrations of the novel compounds and cell number was counted on the flow cytometer.

[2] = tested on: CD34+CD38+ hematopoietic progenitors from adult bone marrow; experiment: Myeloid colony-forming unit (CFU) assay; type: cell-based, human; conditions: for IC50: 14 days; for Colony output for CFU-E, CFU-G and CFU-M (output of the different types of myeloid colonies): scored differentially
Text: Adult Bone Marrow Cells (ABM): Bone marrow samples were obtained by sternal puncture from hematologically normal donors undergoing cardiac surgery, after obtaining informed consent according to the ethical regulations of the University of Antwerp. Cells were collected in IMDM supplemented with 10% FCS and 100 U/ml heparin and separated by density gradient as mentioned for PBMC. After washing, cells were resuspended in IMDM 10% FCS and were sorted on a FACStar (Becton Dickinson, Erembodegem, Belgium). Cell sorting: ABM cells (10^7 cells/ml) were incubated with 43A1 hybridoma supernatant at a 1/10 dilution for 20 minutes at 4° C. The supernatant of the 43A1 hybridoma (immunoglobulin IgG3) was kindly donated by Dr. […] (University of Tübingen, Germany) and was used as a source of anti-CD34 antibodies. After washing twice in IMDM, the cells were incubated with FITC-conjugated rabbit anti-mouse IgG (1/40 dilution) for 20 min at 4° C. […] After washing twice in IMDM, the cells were sorted on a FACStarPlus cell sorter equipped with an water-cooled argon ion laser (INNOVA Enterprise Ion Laser) with multiple wave length outputs including UV (488 nm). Cells with low-to-medium forward and low side scatter, highly positive green (CD34) fluorescence, and an orange (CD38) fluorescence signal lower than the mean fluorescence of cells labeled with an irrelevant isotype-matched control antibody were retained as CD34^+CD38^- cells; cells with an orange fluorescence above this threshold were retained as CD34^+CD38^+ cells. Myeloid Colony-forming unit (CFU) assays: Direct myeloid colony formation of CD34^+CD38^+ cells was assessed in a CFU assay. These assays were initiated with 500 cells per well and plated in duplicate in methylcellulose (0.9%) supplemented with 20% FCS, 1% bovine serum albumin (BSA), 10^-5 M mercaptoethanol and 10 vol. % 5637 conditioned medium of the 5637 bladder carcinoma cell line (containing G-CSF and GM-CSF), 2 U/ml erythropoietin and 30 U/ml interleukine-3 (IL-3). […] The following colony types were scored: myeloid colonies: macrophage (CFU-M), granulocyte (CFU-G), and granulocyte-macrophage (CFU-GM); erythroid colonies (BFU-E (burst-forming units, erythroid) and CFU-E); and mixed erythroid-myeloid colonies (CFU-Mix). CD34^+CD38^+ hematopoietic progenitors (HPC) from adult bone marrow were isolated and investigated for response to novel compounds. CD34^+CD38^+ cells were grown in a methylcellulose system in the presence of increasing concentrations of compounds.

[3] = total colony output, read-out: CFU IC50

Sequence of cdk1/cyclin B (CDC2) (P06493 whole entry, species assumed): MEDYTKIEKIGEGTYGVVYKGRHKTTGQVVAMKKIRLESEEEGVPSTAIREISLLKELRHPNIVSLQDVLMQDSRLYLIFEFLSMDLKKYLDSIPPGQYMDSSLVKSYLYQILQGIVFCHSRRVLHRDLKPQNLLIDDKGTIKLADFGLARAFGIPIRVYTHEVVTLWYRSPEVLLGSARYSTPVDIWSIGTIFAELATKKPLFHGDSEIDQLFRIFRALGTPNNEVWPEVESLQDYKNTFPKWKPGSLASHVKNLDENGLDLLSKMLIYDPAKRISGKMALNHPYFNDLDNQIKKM
Sequence of cdk1/cyclin B (CDC2) (P14635 whole entry partner, species assumed): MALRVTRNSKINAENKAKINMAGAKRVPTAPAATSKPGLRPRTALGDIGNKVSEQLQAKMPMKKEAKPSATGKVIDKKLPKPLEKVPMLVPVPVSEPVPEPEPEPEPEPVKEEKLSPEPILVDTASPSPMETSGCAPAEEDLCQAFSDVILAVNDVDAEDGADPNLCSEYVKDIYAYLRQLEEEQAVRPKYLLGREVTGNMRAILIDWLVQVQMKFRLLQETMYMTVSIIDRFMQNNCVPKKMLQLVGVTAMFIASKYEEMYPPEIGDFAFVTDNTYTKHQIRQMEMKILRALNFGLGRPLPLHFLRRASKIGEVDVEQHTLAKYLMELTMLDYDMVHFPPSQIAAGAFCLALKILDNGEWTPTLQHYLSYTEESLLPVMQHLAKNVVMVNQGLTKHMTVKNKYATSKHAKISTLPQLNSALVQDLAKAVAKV

Molecule | IC50 (cdk1/cyclin B (CDC2)) | IC50 [2, 3] | IC50 ([2]; Homo sapiens, 336 h, methylcellulose, read-out: IC50 on CD34+CD38+ hematopoietic progenitors) | IC50 ([2]; Homo sapiens, 336 h, total colony output, read-out: CFU IC50) | IC50 [1] | Colony output for CFU-E, CFU-G and CFU-M (output of the different types of myeloid colonies) [2] | IC50 ([1]; Homo sapiens, Lymphocyte)
5-(3-hydroxypropylamino)-7-[(R,S)-(1-phenyl-2-hydroxyethyl)amino-3-isopropylpyrazolo[4,3-d]pyrimidine [Compound 172] | > 50 µM | > 20 µM |  |  | 4 ± 0.5 µM | significantly lower colony output | 
5-(methylthio)-7-[N-(3,4-dihydroxybenzyl-N-methyl]amino-3 isopropylpyrazolo[4,3-d]pyrimidine [Compound 26] | > 100 µM | > 50 µM |  |  | 16.5 ± 0.8 µM | no significant difference | 
CCCCCCNc1nc(NC(CO)c2ccccc2)c2[nH]nc(C(C)C)c2n1 (centres unmarked) [Compound 98, 5-(hexylamino)-7-(1-phenyl-2-hydroxyethylamino)-3-isopropylpyrazolo[4,3-d]pyrimidine] | 30 µM |  | > 50 µM | 5.4 ± 0.4 µM |  |  | 18 ± 1 µM

The next molecules have a lower IC50 (cdk1/cyclin B (CDC2)) than those just listed; values first:

IC50 (cdk1/cyclin B (CDC2)) | IC50 [2, 3] | IC50 ([2]; Homo sapiens, 336 h, methylcellulose, read-out: IC50 on CD34+CD38+ hematopoietic progenitors) | IC50 ([2]; Homo sapiens, 336 h, total colony output, read-out: CFU IC50) | Molecule | IC50 [1] | Colony output for CFU-E, CFU-G and CFU-M (output of the different types of myeloid colonies) [2] | IC50 ([1]; Homo sapiens, Lymphocyte)
0.5 µM | 4.5 µM |  |  | 5-(3-aminoethylamino)-7-(3,4-dihydroxybenzyl)amino-3-isopropylpyrazolo[4,3-d]pyrimidine [Compound 201] | 8 ± 2.2 µM | significantly lower colony output | 
11 µM | 17 µM |  |  | 5-(3-aminopropylamino)-7-benzylamino-3-isopropylpyrazolo[4,3-d]pyrimidine [Compound 17] | 4 ± 0.2 µM | significantly lower colony output | 
